Among the data in US6506766B1 (Abbott Laboratories, priority 1998, dated 2003) are Ki values, retold here.

In assay [1] the target is T1, human progesterone receptor-A [PRA] isoform (Homo sapiens, UniProt P06401).
T1 construct: host or cells: insect SF21 cells (baculovirus)
T1 sequence (P06401 1-769 isoform P06401-2): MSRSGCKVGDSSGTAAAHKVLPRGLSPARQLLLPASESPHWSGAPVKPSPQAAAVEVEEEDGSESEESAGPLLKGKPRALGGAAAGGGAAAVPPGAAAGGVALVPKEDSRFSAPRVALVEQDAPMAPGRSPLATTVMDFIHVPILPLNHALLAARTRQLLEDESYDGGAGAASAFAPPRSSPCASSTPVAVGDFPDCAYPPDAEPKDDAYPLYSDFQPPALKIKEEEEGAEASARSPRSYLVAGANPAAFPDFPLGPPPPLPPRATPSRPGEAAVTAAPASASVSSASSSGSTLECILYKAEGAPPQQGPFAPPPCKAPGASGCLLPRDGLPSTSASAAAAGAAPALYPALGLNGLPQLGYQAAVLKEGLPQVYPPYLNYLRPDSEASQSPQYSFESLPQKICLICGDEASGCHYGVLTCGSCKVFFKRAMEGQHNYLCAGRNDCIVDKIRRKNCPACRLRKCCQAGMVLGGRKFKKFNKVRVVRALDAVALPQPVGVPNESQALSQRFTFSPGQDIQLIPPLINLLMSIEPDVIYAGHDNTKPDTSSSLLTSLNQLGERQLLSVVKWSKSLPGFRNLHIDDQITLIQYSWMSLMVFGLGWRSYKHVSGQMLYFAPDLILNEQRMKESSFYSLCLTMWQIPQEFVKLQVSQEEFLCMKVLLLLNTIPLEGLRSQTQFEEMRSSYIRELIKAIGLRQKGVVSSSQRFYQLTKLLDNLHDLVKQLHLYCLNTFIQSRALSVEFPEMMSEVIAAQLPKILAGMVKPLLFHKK
Description: Radioligand binding with human progesterone receptor cytosol ([3H]-progesterone competition). Particulars: PRA cytosol expressed in insect SF21 cells, [3H]Prog ~0.8 nM, 4° C. overnight; Ki by Cheng-Prusoff, KL ~4.5 nM; read-out: Ki (nM) PR.

The target in assay [2] is T2, human glucocorticoid receptor-α [GRX] isoform (Homo sapiens, UniProt P04150).
T2 construct: host or cells: insect SF21 cells (baculovirus)
T2 sequence (P04150 1-777): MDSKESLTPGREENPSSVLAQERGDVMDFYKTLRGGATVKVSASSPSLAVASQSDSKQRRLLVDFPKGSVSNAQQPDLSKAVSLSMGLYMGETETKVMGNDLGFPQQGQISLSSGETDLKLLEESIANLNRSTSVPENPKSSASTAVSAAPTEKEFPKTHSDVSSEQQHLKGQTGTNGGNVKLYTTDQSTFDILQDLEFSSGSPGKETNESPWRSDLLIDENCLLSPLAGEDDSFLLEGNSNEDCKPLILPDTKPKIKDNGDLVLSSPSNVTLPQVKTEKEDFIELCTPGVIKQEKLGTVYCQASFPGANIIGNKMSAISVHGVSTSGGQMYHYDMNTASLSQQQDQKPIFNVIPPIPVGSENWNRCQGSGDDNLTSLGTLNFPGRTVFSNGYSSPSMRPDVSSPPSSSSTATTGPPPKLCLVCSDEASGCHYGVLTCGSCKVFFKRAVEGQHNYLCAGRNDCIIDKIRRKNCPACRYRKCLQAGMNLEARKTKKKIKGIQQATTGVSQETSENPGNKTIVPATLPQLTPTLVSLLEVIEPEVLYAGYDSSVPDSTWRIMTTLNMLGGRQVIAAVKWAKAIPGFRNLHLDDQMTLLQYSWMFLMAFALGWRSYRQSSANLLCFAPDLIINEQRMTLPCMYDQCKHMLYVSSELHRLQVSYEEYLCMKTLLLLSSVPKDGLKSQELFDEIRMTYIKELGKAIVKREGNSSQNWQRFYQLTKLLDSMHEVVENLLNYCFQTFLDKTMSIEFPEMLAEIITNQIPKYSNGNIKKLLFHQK
Put plainly: Radioligand binding with human glucocorticoid receptor cytosol ([3H]-dexamethasone competition). Particulars: GRX cytosol expressed in insect SF21 cells, [3H]-Dex ~0.9 nM, 4° C. overnight; Ki by Cheng-Prusoff, KL ~[…]; read-out: Ki (nM) GR.

Where only a bound is given, the exact number is not on record here.

As to `COc1cccc2c1-c1ccc3c(c1[C@H]([C@H]1C=C(CO)CCC1)O2)C(C)=CC(C)(C)N3` (relative stereo) [Example 148], the inhibitory constant (Ki) (usually a dissociation constant, usually derived from enzyme kinetics or from competition with a known ligand) in assay [1] was no less than 10000 nM; in assay [2], 2.8 nM.

On to `COc1cccc2c1-c1ccc3c(c1[C@@H]([C@H]1C=C(CO)CCC1)O2)C(C)=CC(C)(C)N3` (relative stereo) [Example 149], for which the values for the inhibition constant (Ki) in assay [1] and in assay [2] were 4060 nM and 2.7 nM, respectively.

Turning to `COc1cccc2c1-c1ccc3c(c1[C@@H]([C@H]1C=C(CN(C)C)CCC1)O2)C(C)=CC(C)(C)N3` (relative stereo) [Example 165], the inhibitory constant (Ki) in assay [1] is no less than 10000 nM; in assay [2], 14 nM.

With `COc1cccc2c1-c1ccc3c(c1[C@@H]([C@H]1C=C(CN(C)S(C)(=O)=O)CCC1)O2)C(C)=CC(C)(C)N3` (relative stereo) [Example 168, rel (5R, 3′R) 2,5-Dihydro-10-methoxy-5-(1-(N-methyl-N-methylsulfonylamino)methyl-3-cyclohexenyl)-2,2,4-trimethy-1H-[1]benzopyrano[3,4-f]quinoline], the inhibitory constant (Ki) in assay [1] was no less than 10000 nM; in assay [2] it was 2.5 nM.

Regarding `COc1c(O)ccc2c1-c1ccc3c(c1[C@H]([C@H]1C=C(CO)CCC1)O2)C(C)=CC(C)(C)N3` (relative stereo) [Example 242], the results for the inhibition constant Ki in assay [1] and in assay [2] were 3420 nM and 0.53 nM, respectively.

As to `COCC1=C[C@H]([C@@H]2Oc3ccc(O)c(OC)c3-c3ccc4c(c32)C(C)=CC(C)(C)N4)CCC1` (relative stereo) [Example 244, rel-(5S,3′R)-9-Hydroxy-5-[1-methoxymethyl-3-cyclohexenyl]-10-methoxy-2,2,4-trimethyl-2,5-dihydro-1H-[1]benzopyrano[3,4-f]quinoline], the inhibition constant Ki was 804 nM in assay [1] and 6.3 nM in assay [2].

As for `COc1cccc2c1-c1ccc3c(c1C(c1ccccc1)O2)C(C)=CC(C)(C)N3` (single isomer, unassigned) [Example 25, (±)-2,5-Dihydro-10-methoxy-2,2,4-trimethyl-5-phenyl-1H-[1]benzopyrano-[3,4-f]quinoline], the Ki in assay [1] is no less than 10000 nM; in assay [2], 240 nM.

`COc1cccc2c1-c1ccc3c(c1C(c1ccccc1)O2)C(C)=CC(C)(C)N3` (single isomer, unassigned) [Example 26, (±)-2,5-Dihydro-10-methoxy-2,2,4-trimethyl-5-phenyl-1H-[1]benzopyrano[3,4-f]quinoline]: the Ki in assay [1] amounted to 13400 nM; in assay [2], 2.1 nM.

With `COc1cccc2c1-c1ccc3c(c1C(C1CCCCC1=O)O2)C(C)=CC(C)(C)N3` (single isomer, unassigned) [Example 142, 2,5-Dihydro-10-methoxy-5-(1-oxo-2-cyclohexyl)-2,2,4-trimethyl-1H-[1]benzopyrano[3,4-f]quinoline], the Ki is no less than 10000 nM in assay [1] and 51 nM in assay [2].

`COC(=O)C1=CC(C2Oc3ccc(O)c(OC)c3-c3ccc4c(c32)C(C)=CC(C)(C)N4)CCC1` (single isomer, unassigned) [Example 288]: the results for the Ki in assay [1] and in assay [2] were 4080 nM and 0.86 nM, respectively.

On to `COC(=O)C1=CC(C2Oc3ccc(O)c(OC)c3-c3ccc4c(c32)C(C)=CC(C)(C)N4)CCC1` (single isomer, unassigned) [Example 415], for which the results for the Ki in assay [1] and in assay [2] were 3740 nM and 9.9 nM, respectively.

`C=CCC1Oc2cccc(OC)c2-c2ccc3c(c21)C(C)=CC(C)(C)N3` (single isomer, unassigned; (+)) [Example 37, (+)-2,5-Dihydro-10-methoxy-2,2,4-trimethyl-5-(2-propenyl)-1H-[1]benzopyrano[3,4-f]quinoline]: the inhibitory constant (Ki) in assay [1] was no less than 10000 nM; in assay [2], 20 nM.

Regarding `COc1c(O)ccc2c1-c1ccc3c(c1C(C1C=CCCC1)O2)C(C)=CC(C)(C)N3` (single isomer, unassigned; (+)) [Example 284], the results for the Ki in assay [1] and in assay [2] were 2100 nM and 110 nM, respectively.

On to `C=CCC1Oc2cccc(OC)c2-c2ccc3c(c21)C(C)=CC(C)(C)N3` (single isomer, unassigned; (-)) [Example 36, (−)2,5-Dihydro-10-methoxy-2,2,4-trimethyl-5-(2-propenyl)-1H-[1]benzopyrano[3,4-f]quinoline], for which the Ki in assay [1] is 1700 nM; in assay [2], 1.4 nM.

For `COc1c(O)ccc2c1-c1ccc3c(c1[C@H](C1(C)CC=CCC1)O2)C(C)=CC(C)(C)N3` (single isomer, unassigned; (-)) [Example 238], the Ki amounted to 11.5 nM in assay [1] and 1.2 nM in assay [2].

Take `CC1=CC(C)(C)Nc2ccc3c(c21)C(C1CCCC1)Oc1ccc(O)c(Cl)c1-3` (single isomer, unassigned; (-)) [Example 422, (−)2,5-Dihydro-9-hydroxy-10-chloro-2,2,4-trimethyl-5-cyclopentyl-1H-[1]benzopyrano[3,4-f]quinoline]: the Ki in assay [1] came out at 2.9 nM; in assay [2] it was 0.28 nM.

With `COc1cccc2c1-c1ccc3c(c1[C@@H](C1CCCOC1=O)O2)C(C)=CC(C)(C)N3` (stereo in doubt) [Example 134, rel (5R,2′R) 2,5-Dihydro-10-methoxy-5-(2-oxo-3-tetrahydropyranyl)-2,2,4-trimethyl-1H[1]benzopyrano[3,4-f]quinoline], the Ki in assay [1] is no less than 10000 nM; in assay [2], 238 nM.

For the molecule `COc1cccc2c1-c1ccc3c(c1[C@H](C1(C)CC=CCC1)O2)C(C)=CC(C)(C)N3` (stereo in doubt) [Example 152, rel (5S,3′S) 2,5-Dihydro-10-methoxy-5-(1-methyl-3-cyclohexenyl)-2,2,4-trimethyl-1H[1]benzopyrano[3,4-f]quinoline], the values for the Ki in assay [1] and in assay [2] were no less than 10000 nM and 1.8 nM, respectively.

For `COc1cccc2c1-c1ccc3c(c1C([C@H]1C=C(CSC)CCC1)O2)C(C)=CC(C)(C)N3` (stereo in doubt) [Example 161], the Ki in assay [1] was no less than 10000 nM; in assay [2] it was 3.3 nM.

On to `COc1cccc2c1-c1ccc3c(c1C([C@@H]1C=C(COC(C)=O)CCC1)O2)C(C)=CC(C)(C)N3` (stereo in doubt) [Example 162], for which the Ki in assay [1] was no less than 10000 nM; in assay [2], 6.5 nM.

Turning to `COc1cccc2c1-c1ccc3c(c1C([C@@H]1C=C(CSC)CCC1)O2)C(C)=CC(C)(C)N3` (stereo in doubt) [Example 166], the inhibition constant Ki in assay [1] worked out at 5630 nM; in assay [2], 8.16 nM.

For the molecule `COc1cccc2c1-c1ccc3c(c1C([C@H]1C=C(CN4CCOCC4)CCC1)O2)C(C)=CC(C)(C)N3` (stereo in doubt) [Example 167, rel (5R, 3′R) 2,5-Dihydro-10-methoxy-5-(1-(N-morpholino)methyl-3-cyclohexenyl)-2,2,4-trimethyl-1H-[1]benzopyrano[3,4-f]quinoline], the inhibition constant Ki in assay [1] was no less than 10000 nM; in assay [2], 21 nM.

On to `COc1cccc2c1-c1ccc3c(c1C([C@@H]1C=C(CN(C)C)CCC1)O2)C(C)=CC(C)(C)N3` (stereo in doubt) [Example 169, rel (5R, 3′S) 2,5-Dihydro-10-methoxy-5-(1-(N,N dimethylamino)methyl-3-cyclohexenyl)-2,2,4-trimethyl-1H-[1]benzopyrano[3,4-f]quinoline], for which the Ki in assay [1] is no less than 10000 nM; in assay [2], 300 nM.

`COc1cccc2c1-c1ccc3c(c1C(c1ccccc1)O2)C(C)=CC(C)(C)N3` (stereo not drawn) [Example 1, 2,5-Dihydro-10-methoxy-2,2,4-trimethyl-5-phenyl-1H-[1]benzopyrano[3,4-f]quinoline1H-[1]benzopyrano[3,4-f]quinoline]: the inhibitory constant (Ki) was no less than 10000 nM in assay [1] and 8.6 nM in assay [2].
